Experimental findings from ChEMBL document CHEMBL1201862, “PubChem BioAssay data set” (2004) are described below.

Molecules are shown by their SMILES.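 Interpolation was linear, between the two tested concentrations surrounding the appropriate level; five concentrations were tested over 48 hours in 96-well plates. At the GI50, growth is halved.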 The source made the active and inactive calls. Rule as the data show it: active = GI50 up to about 1.1 µM and inactive = higher. Starred links: 1 amine or outer side, 2 acyl side, 3 side chain; linkers in the order of their positions; H or OH if unused. Non-standard residues stand in square brackets, D forms with d. Residues, ends and D or L forms follow the SMILES beside them. X35 = C=CCC(O[*:1])C(=O)[*:2]; NMeV = CN[CH](C(=O)O)C(C)C; NMeA = CN[CH](C)C(=O)O; βAla = NCCC(=O)O Some results are limits rather than exact numbers.

Test systems include BT-549; CCRF-CEM; COLO 205; EKVX; HCT-116; HOP-62; K562; MDA-MB-435; MDA-N; NCI-H23; OVCAR-8; SK-MEL-28; SK-MEL-2; SK-OV-3; SNB-19; SW-620; U-251; HL-60; NCI-H460; A498.
What all share (experiment): growth of human tumour cells (NCI), 48 h

For `CCc1n[nH]c(=O)n1/N=C/c1c(O)ccc2ccccc12`, the GI50 in the assay with BT-549, in the assay with CCRF-CEM, with COLO 205, in the assay on EKVX, in the assay on HCT-116 and in the assay on HOP-62 was > 100 µM (inactive) throughout. The GI50 in the assay on K562, with MDA-MB-435, in the assay with MDA-N, in the assay on NCI-H23, with OVCAR-8 and in the assay with SK-MEL-28 was > 100 µM (inactive) throughout. For the same compound, the GI50 in the assay with SK-MEL-2, in the assay with SK-OV-3, in the assay on SNB-19, in the assay with SW-620 and in the assay on U-251 was > 100 µM (inactive) in each case.
Consider `CC1(C)CC(=O)C(=CNc2nc(-c3ccc(Br)cc3)cs2)C(=O)C1`, for which the GI50 in the assay with BT-549 is 17.7 µM (inactive); in the assay with COLO 205, 31.2 µM (inactive); with EKVX, 38.7 µM (inactive); in the assay with HCT-116 it was 26.5 µM (inactive); in the assay on HL-60, 27.7 µM (inactive); in the assay on HOP-62, 31.3 µM (inactive). Further, the GI50 in the assay with MDA-MB-435 was 25.6 µM (inactive); in the assay on MDA-N it was 37.8 µM (inactive); in the assay with NCI-H23, 25.8 µM (inactive); in the assay with NCI-H460 it was 31.1 µM (inactive); with OVCAR-8, 51.1 µM (inactive); with SK-MEL-28 it was 34 µM (inactive). The GI50 in the assay with SK-MEL-2 was 19.4 µM (inactive); with SK-OV-3 it was 83 µM (inactive); in the assay on SNB-19, 33.5 µM (inactive); with SW-620, 42.9 µM (inactive); in the assay with U-251, 30.6 µM (inactive).
As for `O=c1[nH]c2cc([N+](=O)[O-])c(Nc3c4ccccc4nc4ccccc34)c([N+](=O)[O-])c2[nH]1`, the GI50 with A498 was 2.08 µM (inactive); with BT-549 it was 6.53 µM (inactive); with CCRF-CEM it was 4.42 µM (inactive); in the assay with COLO 205 it was 2.1 µM (inactive); in the assay on EKVX, 2.47 µM (inactive); with HCT-116 it was 0.82 µM (active). Moreover, the GI50 in the assay with HL-60 is 3.1 µM (inactive); in the assay with HOP-62, 2.67 µM (inactive); in the assay on K562 it was 2.42 µM (inactive); in the assay with MDA-MB-435 it was 2.77 µM (inactive); in the assay with NCI-H23 it was 3.49 µM (inactive); in the assay on NCI-H460 it was 2.36 µM (inactive). The GI50 in the assay on OVCAR-8 is 2.43 µM (inactive); in the assay with SK-MEL-28, 3.27 µM (inactive); in the assay with SK-MEL-2, 2.72 µM (inactive); in the assay with SK-OV-3, 4.04 µM (inactive); in the assay on SNB-19, 5.02 µM (inactive); with SW-620, 2.31 µM (inactive). Moreover, in the assay with U-251, the GI50 is 3.58 µM (inactive).
Consider `CC(=N\c1ccncc1)/C(C)=N/c1ccncc1`, for which the GI50 is 34.4 µM (inactive) with A498; 23.3 µM (inactive) in the assay on BT-549; 25.8 µM (inactive) in the assay on CCRF-CEM; 17 µM (inactive) in the assay with COLO 205; 20.7 µM (inactive) with EKVX; 29.8 µM (inactive) in the assay with HCT-116. Besides, the GI50 in the assay on HL-60 is 26.7 µM (inactive); in the assay on HOP-62, 18.5 µM (inactive); in the assay on K562, 31 µM (inactive); in the assay on MDA-MB-435 it was 29.2 µM (inactive); with NCI-H23, 16.5 µM (inactive); in the assay with NCI-H460, 96.6 µM (inactive). Moreover, the GI50 was 35.2 µM (inactive) in the assay on OVCAR-8; 29.1 µM (inactive) with SK-MEL-28; 20.7 µM (inactive) in the assay on SK-MEL-2; > 100 µM (inactive) in the assay with SK-OV-3; 27.5 µM (inactive) in the assay on SNB-19; 30.8 µM (inactive) with SW-620. Moreover, the GI50 in the assay on U-251 was 24.5 µM (inactive).
Take `CC(C)/C(Cl)=N\OC(=O)Nc1ccc(S(N)(=O)=O)cc1`: the GI50 with A498 is 17 µM (inactive); with BT-549 it was 2.75 µM (inactive); in the assay on CCRF-CEM it was 1.75 µM (inactive); in the assay on COLO 205 it was 1.98 µM (inactive); with EKVX, 18.5 µM (inactive); with HCT-116 it was 13.5 µM (inactive). Moreover, the GI50 in the assay with HL-60 was 1.89 µM (inactive); in the assay with HOP-62, > 42.6 µM (inactive); in the assay with K562 it was 2.79 µM (inactive); in the assay on MDA-N, 18.2 µM (inactive); in the assay on NCI-H23 it was 19.2 µM (inactive); in the assay with NCI-H460, 20.5 µM (inactive). Also, the GI50 in the assay on OVCAR-8 is 17.9 µM (inactive); in the assay on SK-MEL-28 it was 16.2 µM (inactive); with SK-MEL-2, 18.7 µM (inactive); in the assay with SK-OV-3 it was 17.7 µM (inactive); in the assay with SNB-19, > 53.2 µM (inactive); in the assay on SW-620, 1.86 µM (inactive). Further, the GI50 in the assay with U-251 is 19.5 µM (inactive).
`O=[N+]([O-])c1cccc2nc3ccccc3c(NCCCCCNc3c4ccccc4nc4cccc([N+](=O)[O-])c34)c12`: the GI50 in the assay on A498 is 0.111 µM (active); with BT-549, 0.159 µM (active); in the assay with CCRF-CEM, 0.0518 µM (active); in the assay with COLO 205 it was 0.0246 µM (active); in the assay with EKVX, 0.133 µM (active); in the assay on HCT-116 it was 0.0117 µM (active). Also, the GI50 in the assay on HL-60 is 0.00745 µM (active); in the assay on HOP-62 it was 0.0579 µM (active); in the assay with K562 it was 0.00466 µM (active); in the assay on MDA-N, 0.0536 µM (active); in the assay with NCI-H23 it was 0.0412 µM (active); in the assay with NCI-H460 it was 0.0296 µM (active). In addition, the GI50 in the assay with OVCAR-8 is 0.0492 µM (active); in the assay with SK-MEL-28, 0.171 µM (active); with SK-MEL-2, 0.159 µM (active); in the assay on SK-OV-3, 0.19 µM (active); in the assay with SNB-19, 0.116 µM (active); in the assay with SW-620 it was 0.0158 µM (active). Moreover, the GI50 with U-251 is 0.0368 µM (active).
As for `CC1N(O)C(c2ccccc2)C(c2ccccc2)=[N+]1[O-]` (stereo not given), the GI50 in the assay on A498, in the assay on BT-549, in the assay on CCRF-CEM, in the assay on COLO 205, in the assay with EKVX and in the assay with HCT-116 was > 100 µM (inactive) each time. The GI50 in the assay on HL-60, in the assay on HOP-62, with K562, with MDA-N, in the assay on NCI-H23 and in the assay with NCI-H460 was > 100 µM (inactive) throughout. Moreover, the GI50 with OVCAR-8, in the assay with SK-MEL-28, with SK-MEL-2, in the assay on SK-OV-3, in the assay with SNB-19 and with SW-620 was > 100 µM (inactive) throughout. The GI50 in the assay with U-251 was > 100 µM (inactive).
In the case of `CCOP(=O)(OCC)/C(=C/NC(=S)c1ccncc1)C(=O)OC`, the GI50 in the assay with BT-549 is > 100 µM (inactive); in the assay on CCRF-CEM it was 20.6 µM (inactive); in the assay with COLO 205, > 100 µM (inactive); in the assay on EKVX, > 100 µM (inactive); in the assay with HCT-116, > 100 µM (inactive); in the assay on HL-60 it was 53.5 µM (inactive). Further, the GI50 in the assay on HOP-62, in the assay with K562, in the assay on MDA-MB-435, with MDA-N, with NCI-H23 and with NCI-H460 was > 100 µM (inactive) in each case. Also, the GI50 with OVCAR-8, in the assay on SK-MEL-2, with SK-OV-3, in the assay with SNB-19, in the assay with SW-620 and in the assay on U-251 was > 100 µM (inactive) in each case.
As for `COc1ccc2c(c1)N=C1CSC(c3c(Cl)cccc3[N+](=O)[O-])N1C2` (stereo not given), the GI50 in the assay on BT-549 was 24.7 µM (inactive); in the assay with COLO 205 it was 24.9 µM (inactive); in the assay with EKVX, 40.3 µM (inactive); in the assay on HCT-116, 35.5 µM (inactive); in the assay on HL-60, 31 µM (inactive); in the assay with HOP-62, > 100 µM (inactive). In addition, the GI50 was 35.4 µM (inactive) in the assay with K562; 27.5 µM (inactive) with MDA-MB-435; 29.8 µM (inactive) with MDA-N; 45.3 µM (inactive) in the assay on NCI-H23; 20 µM (inactive) with NCI-H460; 46.9 µM (inactive) in the assay on OVCAR-8. The GI50 in the assay on SK-MEL-28 was 20.5 µM (inactive); with SK-MEL-2, 35.4 µM (inactive); with SK-OV-3, > 100 µM (inactive); with SNB-19, > 100 µM (inactive); in the assay with SW-620 it was 36.6 µM (inactive); in the assay on U-251, 54.2 µM (inactive).
Regarding `CC(C)[C@H]1C(=O)O[B@-](F)(c2ccccc2)/[N+]1=C\N(C)C`, the GI50 in the assay with BT-549, in the assay with CCRF-CEM, with COLO 205, in the assay on EKVX, with HCT-116 and with HL-60 was > 100 µM (inactive) in each case. The GI50 with HOP-62, in the assay on K562, in the assay on MDA-MB-435, in the assay with MDA-N, in the assay on NCI-H23 and with NCI-H460 was > 100 µM (inactive) each time. Further, the GI50 in the assay with OVCAR-8, with SK-MEL-28, with SK-OV-3, in the assay on SNB-19, with SW-620 and in the assay on U-251 was > 100 µM (inactive) in each case.
Regarding `C=CCC1OC(=O)CCNC(=O)C(C)N(C)C(=O)C(C(C)C)N(C)C(=O)C(C(C)CC)NC(=O)C2CCCN2C1=O` (stereo not given) (cyclo([X35]PI[NMeV][NMeA][βAla]); configuration not given here), the GI50 was 32 µM (inactive) in the assay with BT-549; 3.1 µM (inactive) in the assay with CCRF-CEM; > 100 µM (inactive) in the assay on COLO 205; 3.23 µM (inactive) in the assay with EKVX; 3.68 µM (inactive) in the assay on HCT-116; 2.56 µM (inactive) in the assay with HL-60. The GI50 in the assay on HOP-62 was 10.2 µM (inactive); with MDA-MB-435, 4.22 µM (inactive); with MDA-N it was > 100 µM (inactive); in the assay on NCI-H23 it was 33.2 µM (inactive); in the assay with NCI-H460, 3.66 µM (inactive); with OVCAR-8, 7.89 µM (inactive). Besides, the GI50 in the assay with SK-MEL-28 is 42.7 µM (inactive); with SK-MEL-2, 9.08 µM (inactive); with SNB-19, > 100 µM (inactive); with SW-620, 6.64 µM (inactive); in the assay with U-251 it was 49.5 µM (inactive).
